Measurements reported in US20110294874A1, “DIAGNOSIS AND THERAPY OF ORGAN DYSFUNCTION USING SPHINGANINE-1-PHOSPHATE” (The Trustees of Columbia University in the City of New York, priority 2008, published 2011).
Several values for one entry are separate records, joined by “and”; a condition that tells them apart may be missing. Equal values may be shown once.

Experiments:
[1] = test system: C57BL/6 mice subjected to liver IR; experiment: Murine model of liver ischemia reperfusion (hepatic IR): plasma ALT and creatinine; assay type: in vivo, mouse; details: for Effect of pre-treatment on Sg1P-mediated renal and hepatic protection after liver IR: given prior to Sg1P treatment, serum creatinine and ALT; for Serum creatinine (mean) / Serum ALT (mean): C57BL/6 mice, 60 min liver ischemia, 24 h reperfusion; for Effect of pretreatment alone on kidney injury resulting from liver IR / Effect of pretreatment alone on liver injury resulting from liver IR: antagonist alone, no Sg1P
[2] = test system: C57BL/6 mice subjected to liver IR; experiment: Liver H&E histology after liver IR (percent necrosis, Suzuki score); assay type: in vivo, mouse; details: pre-treatment prior to Sg1P treatment
Description: Mice were anesthetized with intraperitoneal pentobarbital (50 mg/kg or to effect). Mice were placed under a heating lamp and on a 37° C. heating pad. After a midline laparotomy and intraperitoneal application of 20 U heparin, left lateral and median lobes of the liver were subjected to ischemia with a microaneurysm clip occluding the hepatic triad above the bifurcation. This method of partial hepatic ischemia results in a segmental (˜70%) hepatic ischemia but spares the right lobe of the liver and prevents mesenteric venous congestion by allowing portal decompression throughout the right and caudate lobes of the liver. The liver was then repositioned in the peritoneal cavity in its original location for 60 minutes. The liver was kept moist with gauze soaked in 0.9% normal saline. The body temperature was monitored by an infrared temperature sensor (Linear Laboratories, Fremont, Calif.) every 10 min. and maintained at 37° C. using a heating lamp and a heating pad. After 60 minutes, the liver was reperfused and the wound closed. Sham-operated mice were subjected to laparotomy and identical liver manipulations without vascular occlusion. Two, 4 and 24 hr after reperfusion, plasma was collected for the measurement of alanine aminotransferase (ALT), a common indicator of liver damage, as well as creatinine (Cr) a common indicator of kidney damage. The liver tissue subjected to IR was collected to measure percent liver necrosis (2, 4 and 24 hr after IR), neutrophil infiltration (with immunohistochemistry, 4 and 24 hr after IR), apoptosis (with terminal deoxynucleotidyl transferase-mediated dUTP nick end labeling staining, caspase 3 immunoblotting and DNA laddering, 24 hr after IR), and inflammation by RT-PCR for pro-inflammatory mRNAs (4 hr after IR).
Livers were also analyzed for the degree of hepatocellular damage using the Suzuki's criteria (Suzuki et al., Transplantation 1993, Vol. 55, pp. 1265-1272). To obtain a Suzuki score, 3 liver injury indices are graded: sinusoidal congestion (0-4), hepatocyte necrosis (0-4), and ballooning degeneration (0-4) are graded for a total score of 0-12. No necrosis, congestion, or centrilobular ballooning is given a score of 0 whereas severe congestion/ballooning and >60% lobular necrosis is given a value of 4.

[3] = test system: C57BL/6 mice subjected to liver IR; experiment: Kidney H&E histology after liver IR; assay type: in vivo, mouse; details: pre-treatment prior to Sg1P
From the text: Liver IR-induced AKI in mice shared similar histological changes observed in human AKI associated with liver failure, as observed in H&E slides of kidney sections taken from the mice (see FIG. 3). Multifocal acute tubular injury including individual cell necrosis involving the juxtamedullary proximal tubules of the S3 segment was observed. […] Endothelial apoptosis of peritubular capillaries was also visible in H&E sections as linear arrays of apoptotic bodies corresponding to the interstitial capillary lining endothelium. […] The number of glomeruli with detectable juxtaglomerular apparatus and the number of cells per juxtaglomerular apparatus were both increased after liver IR, indicating hyperplasia of the juxtaglomerular apparatus. […] Liver IR produced large necrotic areas of liver tissue. The average percentage of necrotic areas in liver samples taken from liver IR mice were 92%±2% (n=6), while no necrosis was found in sham-operated mice. Livers were also analyzed for the degree of hepatocellular damage.

[4] = test system: SK2 KO mice subjected to liver IR; experiment: Liver IR in SK2 KO mice: plasma ALT and creatinine; assay type: in vivo, mouse; details: SK2KO, hepatic IR 24 h
Description: (§1) The effects of administering Sg1P (0.1 mg/kg i.v. and 0.2 mg/kg s.c.) on liver and renal injury were also determined in the KO mice and are also shown in Tables 9 and 10 below.

[5] = test system: SK1 KO mice subjected to liver IR; experiment: Liver IR in SK1 KO mice: plasma ALT and creatinine; assay type: in vivo, mouse; details: SK1KO, hepatic IR 24 h
Description: as §1

[6] = mouse, in vivo
[7] = test system: SK-deficient mice subjected to liver IR; experiment: Liver IR in SK-deficient mice (subtype not stated); assay type: in vivo, mouse; details: liver IR (data not shown)
Description: as §1

S1P1 and S1P3 receptors = details: cited from earlier work
[8] = 0.1 mg/kg i.v. and 0.2 mg/kg s.c.

CCCCCCCCCCCC1N[C@H](C(=O)O)CS1 (some centres unmarked) [BML-241]
Effect of pre-treatment on Sg1P-mediated renal and hepatic protection after liver IR [1]: did not block

CCCCCCCCc1ccc(CCC(N)(CO)CO)cc1 [FTY720]
Serum creatinine (mean) [1]: 0.65 ± 0.06 mg/dL
serum ALT ([1]; liver IR, 1 mg/kg i.p. 30 min. prior to liver ischemia and 5 min prior to reperfusion, in U/L): 6435±944

Cc1nn(C)c2nc(NNC(=O)Nc3cc(Cl)nc(Cl)c3)cc(C(C)C)c12 [JTE-013]
Effect of pre-treatment on Sg1P-mediated renal and hepatic protection after liver IR [1]: did not block

CC(=N)NCCC[C@H](N)C(=O)O [L-NIO]
Effect of pre-treatment on Sg1P-mediated renal and hepatic protection after liver IR [1]: had no effects

COc1cccc(-c2cc(=O)c3ccccc3o2)c1N [PD98059]
Effect of pre-treatment on Sg1P-mediated renal and hepatic protection after liver IR [1]: prevented
Necrotic areas in the liver after IR [2]: increased significantly
Effect of pre-treatment on protective effects of Sg1P on renal histology [3]: reduced the protective effects

CCCCCCCCCCCCC/C=C/[C@@H](O)[C@@H](N)COP(=O)(O)O [S1P, sphingosine-1-phosphate]
Creatinine (mean) [4]: 0.880 mg/dL
ALT (mean) [4, 8]: 13165.08 U/L
Serum ALT (mean) [1]: 9178±1822 U/L and 9178 U/L
Serum creatinine (mean) [1]: 0.72 ± 0.13 mg/dL and 0.72 mg/dL
Creatinine (mean) [5]: 1.035 mg/dL
ALT (mean) [5, 8]: 17416.67 U/L
Rescue of serum Sg1P levels [6]: completely rescued

FC(F)(F)c1cccc(-c2noc(-c3cc(-c4ccccc4)c(C(F)(F)F)s3)n2)c1 [SEW2871]
Serum ALT (mean) [1]: 6502±552 U/L
Serum creatinine (mean) [1]: 0.63 ± 0.08 mg/dL

CCCCCCCCCCCCCCC[C@@H](O)[C@@H](N)CO [Sphinganine, sphinganine]
Kidney protection [7]: failed to provide kidney protection
Protective effect on the liver [7]: failed to provide protective effect on the liver
Serum ALT (mean) [1]: 7170 U/L
Serum creatinine (mean) [1]: 0.58 mg/dL
Serum ALT (mean) ([1]; listed as sphinganine): 7170±1282 U/L
Serum creatinine (mean) ([1]; listed as sphinganine): 0.58 ± 0.05 mg/dL

CCCCCCCCCCCCC/C=C/[C@@H](O)[C@@H](N)CO [Sphingosine, sphingosine]
Serum ALT (mean) [1]: 9269 U/L
Serum creatinine (mean) [1]: 0.76 mg/dL
Serum ALT (mean) ([1]; listed as sphingosine): 9269±583 U/L
Serum creatinine (mean) ([1]; listed as sphingosine): 0.76 ± 0.06 mg/dL

CCCCCCCCc1cccc(NC(=O)[C@H](N)COP(=O)(O)O)c1 [VPC]
Serum ALT (mean) [1]: 18253 U/L
Serum creatinine (mean) [1]: 1.61 mg/dL
Serum ALT (mean) ([1]; listed as VPC 23019): 18253±1709 U/L
Effect of pretreatment alone on kidney injury resulting from liver IR [1]: exacerbated kidney injury
Effect of pretreatment alone on liver injury resulting from liver IR [1]: exacerbated liver injury
Selectivity for S1P1 (over S1P3) (S1P1 and S1P3 receptors): 50 fold

CCCCCCc1cccc(NC(=O)[C@H](N)CCP(=O)(O)O)c1 [W146]
Inhibition of Sg1P-mediated renal and hepatic protection ([1]; 0.1 mg/kg (i.p.) 10 minutes prior to liver ischemia): completely inhibit
Serum ALT (mean) [1]: 24452±1760 U/L and 24451 U/L
Serum creatinine (mean) [1]: 1.6 ± 0.2 mg/dL and 1.55 mg/dL
Effect of pretreatment alone on kidney injury resulting from liver IR [1]: exacerbated kidney injury
Effect of pretreatment alone on liver injury resulting from liver IR [1]: exacerbated liver injury
Inhibition of Sg1P's protective effects against liver and kidney injury ([1]; pre-treatment 0.01-0.2 mg/kg): dose-dependent
Necrotic areas in the liver after IR [2]: increased significantly
Effect of pre-treatment on protective effects of Sg1P on renal histology [3]: reduced the protective effects

pertussis toxin
Effect of pre-treatment on Sg1P-mediated renal and hepatic protection after liver IR [1]: prevented
Necrotic areas in the liver after IR [2]: increased significantly
Effect of pre-treatment on protective effects of Sg1P on renal histology [3]: reduced the protective effects
